Results taken from patent US20260263340A1, “Cosmetic Products and Cleaning Products Stabilized Against Microbial Attack” (Thor GmbH, priority 2023, published 2026).
Structures can show the parent of a compound that is named as a salt.

Legend:
[1] = tested on: yeast mixture 2; assay: Repeated-inoculation microbiological stress test of shampoo, yeast mixture 2; assay type: cell-based, Candida albicans, Candida parapsilosis; set-up: key to Yeast growth after inoculation: 0: No growth; Minimal growth, 1 to 10 colonies visible over the entire streak; 2: Light growth, maximum 100 colonies; Moderate growth, maximum 300 to 400 colonies; Uniform growth, >400 colonies, single colonies still clearly recognizable; 5: Heavy growth, too many colonies to count, but no growth over the entire streak; 6: Full growth, barely any single colonies still apparent, growth over the entire streak; conditions: for Yeast growth after inoculation: Shampoo, 6 d
Description: (§1) The tested cleaning composition was an all-purpose cleaner without preservatives and having a pH of 7.7, the skin lotion was a body lotion without preservatives and having a pH of 7.1, and the shampoo was a hair shampoo without preservatives and having a pH of 6.9.
(§2) The cleaning composition was admixed with particular concentrations of guanidine carbonate and guanidine hydrochloride and homogenized. The body lotion and the hair shampoo were each admixed and homogenized with guanidine hydrochloride and with octane-1,2-diol alone or in combination.
(§3) The batches of the products thus obtained were inoculated repeatedly at particular intervals with bacteria mixtures or yeast mixtures that are used as standard for microbiological stress tests of industrial products or cosmetic products (bacteria mixture 1 and 2, yeast mixture 1 and 2).
(§4) The inoculum was added to the respective sample in each inoculation at 2% (v/w) as a fresh cell suspension in a physiological saline solution (0.9% NaCl). The cell count of the inoculum added was 10^8-10^9/ml for the bacteria mixtures, 10^7-10^8/ml for the yeast mixtures, consisting in equal parts of the individual bacteria strains or yeast strains.
(§5) The cell suspension of the yeast mixtures was produced by growing the yeast strains on Sabouraud glucose-agar at 25° C. for 48 hours and washing down the cell lawn in each case with physiological saline solution (0.9% NaCl). Further steps for establishment of a cell count of the inoculum suspension of 10^7/ml to 10^8/ml were effected analogously to the production of the bacteria suspensions.
(§6) In the examples, the samples were inoculated three times at weekly intervals with the respective cell suspensions (2% v/w) and the evolution of the bacteria or yeasts was followed by a semiquantitative evaluation method. After each inoculation, microbial infestation in the samples was evaluated in each case after incubation at 30° C. for 6 to 7 days. For this purpose, an aliquot was taken from each sample after homogenization using a sterile plastic inoculation loop (10 μl) and streaked evenly on agar plates (bacteria mixture 1 and 2 on tryptic soy agar, bacteria mixture 3 on DSMZ 31 alkaline nutrient agar, Sabouraud glucose-agar in the case of yeasts). The streaked agar plates were then incubated at 30° C. for 48 hours (bacteria mixture 1 and 2) or 5 to 7 days (bacteria mixture 3), or at 25° C. for 72 hours (yeast mixtures). After incubation, the bacteria colonies or yeast colonies that have grown on the agar plates were visually evaluated and quantified according to the following scheme:
(§7) Inoculation 2% (w/v) with yeast mixture 2, cell count 10^7/ml

[2] = tested on: yeast mixture 1; assay: Repeated-inoculation microbiological stress test of all-purpose cleaner, yeast mixture 1; assay type: cell-based; set-up: key to Yeast growth after inoculation: 0: No growth; Minimal growth, 1 to 10 colonies visible over the entire streak; 2: Light growth, maximum 100 colonies; Moderate growth, maximum 300 to 400 colonies; Uniform growth, >400 colonies, single colonies still clearly recognizable; 5: Heavy growth, too many colonies to count, but no growth over the entire streak; 6: Full growth, barely any single colonies still apparent, growth over the entire streak; conditions: for Yeast growth after inoculation: All-purpose cleaner, 6 d
Description: as §1, §2, §3, §4, §5, §6
Inoculation 2% (w/v) with yeast mixture 1, cell count 10^8/ml

[3] = tested on: yeast mixture 2; assay: Repeated-inoculation microbiological stress test of body lotion, yeast mixture 2; assay type: cell-based, Candida albicans, Candida parapsilosis; set-up: key to Yeast growth after inoculation: 0: No growth; Minimal growth, 1 to 10 colonies visible over the entire streak; 2: Light growth, maximum 100 colonies; Moderate growth, maximum 300 to 400 colonies; Uniform growth, >400 colonies, single colonies still clearly recognizable; 5: Heavy growth, too many colonies to count, but no growth over the entire streak; 6: Full growth, barely any single colonies still apparent, growth over the entire streak; conditions: for Yeast growth after inoculation: Body lotion, 6 d
Description: as §1, §2, §3, §4, §5, §6, §7

[4] = tested on: bacteria mixture 3; assay: Repeated-inoculation microbiological stress test of body lotion, bacteria mixture 3; assay type: cell-based, Nesterenkonia spec.; set-up: key to Bacterial growth after inoculation: 0: No growth; Minimal growth, 1 to 10 colonies visible over the entire streak; 2: Light growth, maximum 100 colonies; Moderate growth, maximum 300 to 400 colonies; Uniform growth, >400 colonies, single colonies still clearly recognizable; 5: Heavy growth, too many colonies to count, but no growth over the entire streak; 6: Full growth, barely any single colonies still apparent, growth over the entire streak; conditions: for Bacterial growth after inoculation: Body lotion, 6 d
Description: as §1, §2, §3, §4
The cell suspension of the bacteria mixtures was produced by growing the individual bacteria at 30° C. for 24 h in liquid culture on a shaker. The medium used to grow the bacteria from bacteria mixtures 1 and 2 was Müller-Hinton liquid medium. The bacteria from bacteria mixture 3 were grown in Müller-Hinton liquid medium that had been adjusted to pH 9.5 to 9.7 with an alkaline buffer solution beforehand. After growing, the individual liquid cultures were centrifuged, and the cells were resuspended in physiological saline solution. In order to adjust the mixtures to a total cell count of 10^8 to 10^9/ml, the individual bacteria suspensions, if necessary, were diluted accordingly before being combined with saline solution. The cell count of the inoculum suspensions was determined in each case by chamber counting.
as §6
Inoculation 2% (w/v) with bacteria mixture 3, cell count 10^8/ml

[5] = +10000 ppm guanidine hydrochloride (6180 ppm guanidine) pH 6.8, 1. inoculation
[6] = +10000 ppm guanidine hydrochloride (6180 ppm guanidine) pH 6.8, 2. inoculation
[7] = +10000 ppm guanidine hydrochloride (6180 ppm guanidine) pH 6.8, 3. inoculation
[8] = +2500 ppm octanediol pH 7.0, 1. inoculation
[9] = +2500 ppm octanediol pH 7.0, 2. inoculation
[10] = +2500 ppm octanediol pH 7.0, 3. inoculation
[11] = +5000 ppm octanediol pH 7.0, 1. inoculation
[12] = +5000 ppm octanediol pH 7.0, 2. inoculation
[13] = +5000 ppm octanediol pH 7.0, 3. inoculation

N=C(N)N [guanidine hydrochloride]
Yeast growth after inoculation ([1]; +10000 ppm guanidine hydrochloride (6070 ppm guanidine) pH 6.8, 1. inoculation): 4 (Uniform growth, >400 colonies, single colonies still clearly recognizable) | Yeast growth after inoculation ([1]; +10000 ppm guanidine hydrochloride (6070 ppm guanidine) pH 6.8, 2. inoculation): 6 | Yeast growth after inoculation ([1]; +10000 ppm guanidine hydrochloride (6070 ppm guanidine) pH 6.8, 3. inoculation): 6 | stability of the shampoo to microbial infestation by yeasts ([1]; table 6, addition of 4553 ppm of guanidine in the form of guanidine hydrochloride at pH 6.9): distinct improvement in stability | Yeast growth after inoculation ([2]; +1000 ppm guanidine hydrochloride (618 ppm guanidine) pH 7.7, 1. inoculation): 5 | Yeast growth after inoculation ([2]; +1000 ppm guanidine hydrochloride (618 ppm guanidine) pH 7.7, 2. inoculation): 6 | Yeast growth after inoculation ([2]; +1000 ppm guanidine hydrochloride (618 ppm guanidine) pH 7.7, 3. inoculation): 6 | Yeast growth after inoculation ([2]; +2500 ppm guanidine hydrochloride (1545 ppm guanidine) pH 7.7, 1. inoculation): 1 (Minimal growth, 1 to 10 colonies visible over the entire streak) | Yeast growth after inoculation ([2]; +2500 ppm guanidine hydrochloride (1545 ppm guanidine) pH 7.7, 2. inoculation): 1 (Minimal growth, 1 to 10 colonies visible over the entire streak) | Yeast growth after inoculation ([2]; +2500 ppm guanidine hydrochloride (1545 ppm guanidine) pH 7.7, 3. inoculation): 1 (Minimal growth, 1 to 10 colonies visible over the entire streak) | Yeast growth after inoculation ([2]; +5000 ppm guanidine hydrochloride (3090 ppm guanidine) pH 7.6, 1. inoculation): 0 | Yeast growth after inoculation ([2]; +5000 ppm guanidine hydrochloride (3090 ppm guanidine) pH 7.6, 2. inoculation): 0 | Yeast growth after inoculation ([2]; +5000 ppm guanidine hydrochloride (3090 ppm guanidine) pH 7.6, 3. inoculation): 1 (Minimal growth, 1 to 10 colonies visible over the entire streak) | stability of the all-purpose cleaner to microbial infestation by yeasts ([2]; addition of 1516 ppm of guanidine in the form of guanidine hydrochloride at pH 7.7): distinct improvement in stability | Yeast growth after inoculation [3, 5]: 5 | Yeast growth after inoculation [3, 6]: 6 | Yeast growth after inoculation [3, 7]: 6 | stability of the body lotion to microbial infestation by yeasts ([3]; addition of 4553 ppm of guanidine in the form of guanidine hydrochloride at pH 6.9): distinct improvement in stability | Bacterial growth after inoculation [4, 5]: 6 | Bacterial growth after inoculation [4, 6]: 6 | Bacterial growth after inoculation [4, 7]: 6 | stability of the body lotion to microbial infestation by bacteria ([4]; addition of 3035 ppm of guanidine in the form of guanidine hydrochloride at pH 7.0): distinct improvement in stability

CCCCCCC(O)CO (stereo not shown) [octanediol, octane-1,2-diol]
Yeast growth after inoculation ([1]; +2500 ppm octanediol pH 6.9, 1. inoculation): 4 (Uniform growth, >400 colonies, single colonies still clearly recognizable) | Yeast growth after inoculation ([1]; +2500 ppm octanediol pH 6.9, 2. inoculation): 5 | Yeast growth after inoculation ([1]; +2500 ppm octanediol pH 6.9, 3. inoculation): 6 | Yeast growth after inoculation ([1]; +5000 ppm octanediol pH 6.9, 1. inoculation): 1 (Minimal growth, 1 to 10 colonies visible over the entire streak) | Yeast growth after inoculation ([1]; +5000 ppm octanediol pH 6.9, 2. inoculation): 2 (Light growth, maximum 100 colonies) | Yeast growth after inoculation ([1]; +5000 ppm octanediol pH 6.9, 3. inoculation): 2 (Light growth, maximum 100 colonies) | Yeast growth after inoculation [3, 8]: 5 | Yeast growth after inoculation [3, 9]: 6 | Yeast growth after inoculation [3, 10]: 6 | Yeast growth after inoculation [3, 11]: 3 (Moderate growth, maximum 300 to 400 colonies) | Yeast growth after inoculation [3, 12]: 3 (Moderate growth, maximum 300 to 400 colonies) | Yeast growth after inoculation [3, 13]: 2 (Light growth, maximum 100 colonies) | Bacterial growth after inoculation [4, 8]: 4 (Uniform growth, >400 colonies, single colonies still clearly recognizable) | Bacterial growth after inoculation [4, 9]: 6 | Bacterial growth after inoculation [4, 10]: 6 | Bacterial growth after inoculation [4, 11]: 1 (Minimal growth, 1 to 10 colonies visible over the entire streak) | Bacterial growth after inoculation [4, 12]: 3 (Moderate growth, maximum 300 to 400 colonies) | Bacterial growth after inoculation [4, 13]: 3 (Moderate growth, maximum 300 to 400 colonies)
